How the values were obtained:
ESX = system: ESX
Experimental: (§1)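 60-agent targeted drug screens (Drug Screen V3 on epithelioid sarcoma cultures PCB490-3/4/5, PCB495, EPS cell lines ESX, VA-ES-BJ, FU-EPS-1 and SkMc myoblasts; PPTI screen v2.1 on human UPS PCB197 and canine UPS S1-12). 384-well plates, 72 h, CellTiter-Glo viability; IC50 by Hill curve fit. 10000 nM = no IC50 achieved (top reported value).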

FU-EPS-1 = system: FU-EPS-1
Experimental: as §1

PCB-490-3 = system: PCB-490-3 (human epithelioid sarcoma primary culture)
Experimental: as §1

PCB-490-4 = system: PCB-490-4 (human epithelioid sarcoma primary culture)
Experimental: as §1

PCB-490-5 = system: PCB-490-5 (human epithelioid sarcoma primary culture)
Experimental: as §1

PCB-495 = system: PCB-495 (human epithelioid sarcoma primary culture)
Experimental: as §1

SkMc = system: SkMc
Experimental: as §1

VA-ES-BJ = system: VA-ES-BJ
Experimental: as §1

pcb-00197 = system: pcb-00197 (human undifferentiated pleomorphic sarcoma culture)
Experimental: as §1

s1-12 = system: s1-12 (canine undifferentiated pleomorphic sarcoma culture)
Experimental: as §1

## CCOc1cc(C(C)(C)C)ccc1C1=N[C@@](C)(c2ccc(Cl)cc2)[C@@](C)(c2ccc(Cl)cc2)N1C(=O)N1CCN(CCCS(C)(=O)=O)CC1
ESX
  IC50 cell viability: > 10 µM
FU-EPS-1
  IC50 cell viability: > 10 µM
PCB-490-3
  IC50 cell viability: > 10 µM
PCB-490-4
  IC50 cell viability: > 10 µM
PCB-490-5
  IC50 cell viability: > 10 µM
PCB-495
  IC50 cell viability: > 10 µM
SkMc
  IC50 cell viability: > 10 µM
VA-ES-BJ
  IC50 cell viability: > 10 µM
pcb-00197
  IC50 cell viability: > 10 µM
s1-12
  IC50 cell viability: > 10 µM

## C[C@]1(O)C[C@@H](c2nc(-c3ccc4ccc(-c5ccccc5)nc4c3)c3c(N)nccn32)C1 [OSI-906]
ESX
  IC50 cell viability: 0.02 µM
FU-EPS-1
  IC50 cell viability: > 10 µM
PCB-490-3
  IC50 cell viability: > 10 µM
PCB-490-4
  IC50 cell viability: > 10 µM
PCB-490-5
  IC50 cell viability: > 10 µM
PCB-495
  IC50 cell viability: > 10 µM
SkMc
  IC50 cell viability: > 10 µM
VA-ES-BJ
  IC50 cell viability: > 10 µM
pcb-00197
  IC50 cell viability: > 10 µM
s1-12
  IC50 cell viability: 1.07 µM

## Nc1ccccc1NC(=O)c1ccc(CNC(=O)OCc2cccnc2)cc1 [Entinostat]
ESX
  IC50 cell viability: > 10 µM
FU-EPS-1
  IC50 cell viability: 2.69 µM
PCB-490-3
  IC50 cell viability: > 10 µM
PCB-490-4
  IC50 cell viability: > 10 µM
PCB-490-5
  IC50 cell viability: > 10 µM
PCB-495
  IC50 cell viability: > 10 µM
SkMc
  IC50 cell viability: > 10 µM
VA-ES-BJ
  IC50 cell viability: 1.18 µM
pcb-00197
  IC50 cell viability: > 10 µM
s1-12
  IC50 cell viability: 0.92 µM

## CCc1cnn2c(NCc3ccc[n+]([O-])c3)cc(N3CCCC[C@H]3CCO)nc12 [Dinaciclib]
ESX
  IC50 cell viability: 0.01 µM
FU-EPS-1
  IC50 cell viability: > 10 µM
PCB-490-3
  IC50 cell viability: > 10 µM
PCB-490-4
  IC50 cell viability: 0.1 µM
PCB-490-5
  IC50 cell viability: > 10 µM
PCB-495
  IC50 cell viability: 0.01 µM
SkMc
  IC50 cell viability: > 10 µM
VA-ES-BJ
  IC50 cell viability: 0.01 µM
pcb-00197
  IC50 cell viability: > 10 µM
s1-12
  IC50 cell viability: 0.01 µM

## COc1cc2nc(N3CCCN(C)CC3)nc(NC3CCN(Cc4ccccc4)CC3)c2cc1OC
ESX
  IC50 cell viability: 0.2 µM
FU-EPS-1
  IC50 cell viability: 1.01 µM
PCB-490-3
  IC50 cell viability: 3.14 µM
PCB-490-4
  IC50 cell viability: 1.82 µM
PCB-490-5
  IC50 cell viability: 6.69 µM
PCB-495
  IC50 cell viability: 1.38 µM
SkMc
  IC50 cell viability: 0.15 µM
VA-ES-BJ
  IC50 cell viability: 6.57 µM
pcb-00197
  IC50 cell viability: 6.05 µM
s1-12
  IC50 cell viability: 1.72 µM

## CC(C)(C(=O)NCC(F)(F)C(F)(F)F)C(=O)N[C@@H]1C(=O)Nc2ccccc2-c2ccccc21
ESX
  IC50 cell viability: > 10 µM
FU-EPS-1
  IC50 cell viability: > 10 µM
PCB-490-3
  IC50 cell viability: > 10 µM
PCB-490-4
  IC50 cell viability: > 10 µM
PCB-490-5
  IC50 cell viability: > 10 µM
PCB-495
  IC50 cell viability: > 10 µM
SkMc
  IC50 cell viability: 3.76 µM
VA-ES-BJ
  IC50 cell viability: > 10 µM
pcb-00197
  IC50 cell viability: > 10 µM
s1-12
  IC50 cell viability: > 10 µM

## COCC[n+]1c2c(n(Cc3cnccn3)c1C)C(=O)c1ccccc1C2=O [YM155]
ESX
  IC50 cell viability: 0.02 µM
FU-EPS-1
  IC50 cell viability: 0.01 µM
PCB-490-3
  IC50 cell viability: 0.15 µM
PCB-490-4
  IC50 cell viability: 0.27 µM
PCB-490-5
  IC50 cell viability: 0.16 µM
PCB-495
  IC50 cell viability: 0.07 µM
SkMc
  IC50 cell viability: 0.28 µM
VA-ES-BJ
  IC50 cell viability: 0.01 µM

## Cn1c(=O)n(-c2ccc(C(C)(C)C#N)cc2)c2c3cc(-c4cnc5ccccc5c4)ccc3ncc21 [BEZ235]
ESX
  IC50 cell viability: 0.02 µM
FU-EPS-1
  IC50 cell viability: 0.14 µM
PCB-490-3
  IC50 cell viability: 1.36 µM
PCB-490-4
  IC50 cell viability: 0.26 µM
PCB-490-5
  IC50 cell viability: 0.2 µM
PCB-495
  IC50 cell viability: 0.43 µM
SkMc
  IC50 cell viability: 0.37 µM
VA-ES-BJ
  IC50 cell viability: 0.08 µM

## O=C(O)c1ccc2c(c1)nc(Nc1cccc(Cl)c1)c1ccncc12 [CX-4945]
ESX
  IC50 cell viability: > 10 µM
FU-EPS-1
  IC50 cell viability: 0.14 µM
PCB-490-3
  IC50 cell viability: > 10 µM
PCB-490-4
  IC50 cell viability: 6.52 µM
PCB-490-5
  IC50 cell viability: 1.2 µM
PCB-495
  IC50 cell viability: > 10 µM
SkMc
  IC50 cell viability: 1.14 µM
VA-ES-BJ
  IC50 cell viability: > 10 µM

## CN(C(=O)c1ccc(F)cc1C(F)(F)F)C1CCN(c2nnc(-c3ccnn3C)c3ccccc23)CC1
ESX
  IC50 cell viability: > 10 µM
FU-EPS-1
  IC50 cell viability: > 10 µM
PCB-490-3
  IC50 cell viability: > 10 µM
PCB-490-4
  IC50 cell viability: > 10 µM
PCB-490-5
  IC50 cell viability: > 10 µM
PCB-495
  IC50 cell viability: > 10 µM
SkMc
  IC50 cell viability: > 10 µM
VA-ES-BJ
  IC50 cell viability: > 10 µM

## CC(C)N(CCCNC(=O)Nc1ccc(C(C)(C)C)cc1)C[C@H]1O[C@@H](n2cc(Br)c3c(N)ncnc32)[C@H](O)[C@@H]1O [SGC0946]
ESX
  IC50 cell viability: 0.62 µM
FU-EPS-1
  IC50 cell viability: 1.48 µM
PCB-490-3
  IC50 cell viability: > 10 µM
PCB-490-4
  IC50 cell viability: > 10 µM
PCB-490-5
  IC50 cell viability: > 10 µM
PCB-495
  IC50 cell viability: 0.6 µM
SkMc
  IC50 cell viability: 0.1 µM
VA-ES-BJ
  IC50 cell viability: 0.49 µM

## Cc1nc(Nc2ncc(C(=O)Nc3c(C)cccc3Cl)s2)cc(N2CCN(CCO)CC2)n1 [Dasatinib]
ESX
  IC50 cell viability: > 10 µM
FU-EPS-1
  IC50 cell viability: > 10 µM
PCB-490-3
  IC50 cell viability: 1.27 µM
PCB-490-4
  IC50 cell viability: 0.17 µM
PCB-490-5
  IC50 cell viability: 0.39 µM
PCB-495
  IC50 cell viability: > 10 µM
SkMc
  IC50 cell viability: 0.05 µM
VA-ES-BJ
  IC50 cell viability: > 10 µM

## O=C(O)CC[C@H](O)C(=O)O [L-a-Hydroxyglutaric acid]
ESX
  IC50 cell viability: > 10 µM
FU-EPS-1
  IC50 cell viability: > 10 µM
PCB-490-3
  IC50 cell viability: > 10 µM
PCB-490-4
  IC50 cell viability: > 10 µM
PCB-490-5
  IC50 cell viability: > 10 µM
PCB-495
  IC50 cell viability: > 10 µM
SkMc
  IC50 cell viability: > 10 µM
VA-ES-BJ
  IC50 cell viability: > 10 µM

## COCC1(CO)C(=O)C2CCN1CC2 (centres undefined) [APR-246]
ESX
  IC50 cell viability: 0.13 µM
FU-EPS-1
  IC50 cell viability: > 10 µM
PCB-490-3
  IC50 cell viability: > 10 µM
PCB-490-4
  IC50 cell viability: 0.12 µM
PCB-490-5
  IC50 cell viability: > 10 µM
PCB-495
  IC50 cell viability: > 10 µM
SkMc
  IC50 cell viability: > 10 µM
VA-ES-BJ
  IC50 cell viability: > 10 µM

## O=C1NC(=O)C(c2cnc3ccccn23)=C1c1cn2c3c(cc(F)cc13)CN(C(=O)N1CCCCC1)CC2
ESX
  IC50 cell viability: 1.52 µM
FU-EPS-1
  IC50 cell viability: > 10 µM
PCB-490-3
  IC50 cell viability: > 10 µM
PCB-490-4
  IC50 cell viability: > 10 µM
PCB-490-5
  IC50 cell viability: > 10 µM
PCB-495
  IC50 cell viability: > 10 µM
SkMc
  IC50 cell viability: 0.2 µM
VA-ES-BJ
  IC50 cell viability: > 10 µM

## Cc1nnc(C(C)C)n1C1C[C@H]2CC[C@@H](C1)N2CC[C@H](NC(=O)C1CCC(F)(F)CC1)c1ccccc1 (stereo in doubt) [Maraviroc]
ESX
  IC50 cell viability: > 10 µM
FU-EPS-1
  IC50 cell viability: > 10 µM
PCB-490-3
  IC50 cell viability: > 10 µM
PCB-490-4
  IC50 cell viability: > 10 µM
PCB-490-5
  IC50 cell viability: > 10 µM
PCB-495
  IC50 cell viability: > 10 µM
SkMc
  IC50 cell viability: > 10 µM
VA-ES-BJ
  IC50 cell viability: > 10 µM

## CN1CCC(CNc2ccc3ncc(-c4cccc(OC(F)(F)F)c4)n3n2)CC1 [SGI-1776]
ESX
  IC50 cell viability: 0.15 µM
FU-EPS-1
  IC50 cell viability: 1.7 µM
PCB-490-3
  IC50 cell viability: 4.5 µM
PCB-490-4
  IC50 cell viability: 2.03 µM
PCB-490-5
  IC50 cell viability: 1.85 µM
PCB-495
  IC50 cell viability: 7.51 µM
SkMc
  IC50 cell viability: 2.84 µM
VA-ES-BJ
  IC50 cell viability: 4.81 µM

## CC[C@H](C)n1cc(C)c2c(C(=O)NCc3c(C)cc(C)[nH]c3=O)cc(-c3ccc(N4CCNCC4)nc3)cc21 [GSK126]
ESX
  IC50 cell viability: > 10 µM
FU-EPS-1
  IC50 cell viability: > 10 µM
PCB-490-3
  IC50 cell viability: > 10 µM
PCB-490-4
  IC50 cell viability: > 10 µM
PCB-490-5
  IC50 cell viability: > 10 µM
PCB-495
  IC50 cell viability: > 10 µM
SkMc
  IC50 cell viability: 0.44 µM
VA-ES-BJ
  IC50 cell viability: > 10 µM

## CO[C@H]1C[C@@H]2CC[C@@H](C)[C@@](O)(O2)C(=O)C(=O)N2CCCC[C@H]2C(=O)O[C@H]([C@H](C)C[C@@H]2CC[C@@H](O)[C@H](OC)C2)CC(=O)[C@H](C)/C=C(\C)[C@@H](O)[C@@H](OC)C(=O)[C@H](C)C[C@H](C)/C=C/C=C/C=C/1C [Sirolimus]
ESX
  IC50 cell viability: > 10 µM
FU-EPS-1
  IC50 cell viability: > 10 µM
PCB-490-3
  IC50 cell viability: > 10 µM
PCB-490-4
  IC50 cell viability: > 10 µM
PCB-490-5
  IC50 cell viability: > 10 µM
PCB-495
  IC50 cell viability: > 10 µM
SkMc
  IC50 cell viability: 0.29 µM
VA-ES-BJ
  IC50 cell viability: > 10 µM

Source: the supplement of paper PMC6580486
